Measured values reported in patent US4632939A, “Anticonvulsant agents” (Eli Lilly and Company, priority 1985, dated 1986).

What was measured:
[1] = tested on: extensor tonic convulsions; test: Electroshock induced convulsion inhibition assay (E.S.); type: in vivo, mice (Cox standard strain albino male); settings: Mus musculus, 1 h; oral dose (gavage); mice; 60 min after administration; 0.1 second, 50 milliampere electroshock through corneal electrodes; inhibition of extensor tonic convulsions in half of the animals
Source text: The compounds of Formula I are anticonvulsant agents with a high therapeutic ratio and long half-life and are therefore useful in the treatment and prevention of convulsions in mammals. In particular, the compounds are effective against tonic extensor seizures elicited by maximal electroshock and should therefore be useful for treating generalized tonic-clonic ("grand mal"), cortical focal, complex partial (temporal lobe epilepsy), simple partial (focal motor), and post-traumaticseizures in humans. […] In the electroshock induced convulsion inhibition assay (E.S.), the compound to be tested was dissolved in water (5% --sufficient hydrochloric acid was added for those compounds which were not isolated as a salt in order to effect dissolution) and administered by gavage to each of ten Cox standard strain albino male mice (18-24 g) at the dose level being investigated. Sixty minutes after compound administration, the mice were subjected to a 0.1 second, 50 milliampere electroshock through corneal electrodes. The animals were examined and evaluated immediately after the electroshock for the occurrence of clonic, flexor tonic, or extensor tonic convulsions, or death and the ED50 was determined for each compound as the dose which inhibited the occurrence of extensor tonic convulsions in one half of the animals immediately after the electroshock. For comparison, 18 milliamperes was usually sufficient to produce extensor tonic convulsions in about half of the control animals; at 50 milliamperes, almost all control animals (receiving vehicle only) died.

seizures = settings: man, cited from earlier work

Cl.Nc1ccc(C(=O)NC2CCCc3ccccc32)cc1 (stereo not shown) [Example 7, 4-amino-N-(1,2,3,4-tetrahydro-1-naphthalenyl)benzamide hydrochloride]
ED50 [1]: 44.5 mg/kg

Nc1ccc(C(=O)NC2CCc3ccccc32)cc1 (stereo not shown) [Example 8, 4-Amino-N-(2,3-dihydro-1H-inden-1-yl)benzamide]
ED50 [1]: 31 mg/kg

C[C@H](NC(=O)c1ccc(N)cc1)c1cccc2ccccc12.Cl [Example 9, (S)-4-amino-N-[1-(1-naphthalenyl)ethyl]benzamide hydrochloride]
ED50 [1]: 110 mg/kg

Nc1ccc(C(=O)Nc2cccc3c2CCCC3)cc1 [Example 10, 4-Amino-N-(5,6,7,8-tetrahydro-1-naphthalenyl)benzamide]
ED50 [1]: 100 mg/kg

Cl.Nc1ccc(C(=O)Nc2cccc3ccccc23)cc1 [Example 11, 4-Amino-N-1-naphthalenylbenzamide hydrochloride]
ED50 [1]: 62 mg/kg

Nc1ccc(C(=O)Nc2ccc3ccccc3c2)cc1 [Example 12, 4-Amino-N-2-naphthalenylbenzamide]
ED50 [1]: > 200 mg/kg

O=C1NC(=O)C(c2ccccc2)(c2ccccc2)N1 [phenytoin]
plasma level at which ataxia is obvious (seizures; ataxia): 30000 ng/mL | plasma level at which lethargy is apparent (seizures; lethargy): about 40 mcg/ml | plasma level at which nystagmus is seen (seizures; nystagmus): around 20 mcg/ml | plasma level at which seizures are controlled (seizures): ≥ 10 µg/mL
